Experimental data reported in US6380181B1, “Synthetic catechol derivatives, method for production and use thereof” (priority 1996, dated 2002).
Values after ≈ are worked out from the molar mass of the structure shown. Like-named read-outs stand apart in the source and are kept apart here. Blank lines part the entries; values can stand above or below the molecule they belong to.

Experiments:
Format in all cases: cell-based
[1] = system: Pseudomonas aeruginosa NCTC 10662; test: Microdilution test (MIC); details: P. aeruginosa NCTC 10662
Description: (§1) The minimum inhibiting concentrations (MICs) were determined for the following bacterial strains: Pseudomonas aeruginosa NCTC 10701, NCTC 10662, SG 137, ATCC 27853, KW 799 WT and KW 799/61, E. coli DCO, DC2 and ATCC 25922, Serratia marcescens SG 621; Salmonella gallinarum ATCC 9184, Klebsiella pneumoniae ATCC 10031 and SG 117.

[2] = system: Pseudomonas aeruginosa SG 137; test: Microdilution test (MIC); details: P. aeruginosa SG 137
Description: as §1

E. coli ATCC 25922 = test: Microdilution test (MIC)
Description: as §1

[3] = system: Klebsiella pneumoniae ATCC 10031; test: Microdilution test (MIC)
Description: as §1

[4] = system: Serratia marcescens SG 621; test: Microdilution test (MIC)
Description: as §1

[5] = system: Pseudomonas aeruginosa SG 137 (carbenicillin-resistant); test: Agar diffusion test; details: concentration 100 μg/ml, P. aeruginosa SG 137
[6] = system: Pseudomonas aeruginosa KW 799 WT (wild type); test: Agar diffusion test; details: concentration 100 μg/ml, P. aeruginosa KW799/WT
[7] = system: Stenotrophomonas maltophilia GN 12873; test: Microdilution test (MIC)
E. coli DC2 = test: microbe, parasite or virus in culture
Description: as §1
(§2) With the test germs KW 799/WT and /61 of Pseudomonas and DCO and DC2 of E. coli, the effect of improved penetration capacity on the efficacy of the substances was investigated.

[8] = system: Pseudomonas aeruginosa KW 799/61; test: Microdilution test (MIC)
Description: as §1, §2

[9] = system: Pseudomonas aeruginosa KW 799 WT; test: Microdilution test (MIC); details: P. aeruginosa KW 799/WT
Description: as §1, §2

[10] = system: Stenotrophomonas maltophilia GN 12873; test: Agar diffusion test; details: concentration 100 μg/ml
[11] = system: E. coli DC2 (penetration mutant); details: concentration 100 μg/ml
[12] = system: Salmonella gallinarum ATCC 9184; details: concentration 100 μg/ml, Salmonella galinarum ATCC 9184
[13] = system: Pseudomonas aeruginosa KW 799/61 (penetration mutant); details: P. aeruginosa KW799/61
E. coli DC0 (wild type) = test: Agar diffusion test; details: concentration 100 μg/ml
[14] = system: Pseudomonas aeruginosa ATCC 27853 (wild type); test: Agar diffusion test; details: concentration 100 μg/ml; P. aeruginosa ATCC 27853
[15] = system: Pseudomonas aeruginosa ATCC 27853; test: Microdilution test (MIC); details: P. aeruginosa ATCC 27853
Description: as §1

[16] = system: Klebsiella pneumoniae SG 117; test: Agar diffusion test; details: concentration 100 μg/ml
[17] = system: Klebsiella pneumoniae ATCC 10031; test: Agar diffusion test; details: concentration 100 μg/ml
[18] = system: Proteus vulgaris 718 (wild); details: Proteus vul. 718
Description: (§3) In the indicator mutants, the synthesis of the respective siderophores, e.g. pyoverdin, pyochelin, enterobactin, aerobactin or yersiniabactin, or the biosynthesis of aromatic compounds, is blocked, or there is a lack of receptors for enterobactin, pyochelin or pyoverdin and for other important components for the bacterial transport of iron (e.g. the membrane proteins Cir, Fiu, FepA and TonB). Under conditions where there is a lack of iron, these mutants therefore cannot grow or can only grow to a very slight extent. In particular, the following indicator mutants were used: Pseudomonas aeruginosa PAO 6609, K 407, 690; E. coli AB 2847, Salmonella typhimurium enb-7, TA 270; Klebsiella pneumoniae KN 4401; Yersinia enterocolitica WAH; Proteus mirabilis 12 (wild); Proteus vulgaris 718 (wild) and Morganella morganii SBK3 (wild). […] The controls used were ferrioxamine E for the Pseudomonas strains, ferrioxamine G and enterobactin for the Salmonella strains, ferrichrome for the E. coli, Klebsiella and Y. enterocol. strains, and 3,4-dihydroxybenzylidene-2,4,6-trimethylaniline for Morganella morganii (see the above literature reference by R. Reissbrodt et al.).
(§4) The annotations + and (+) relate to non-specific promotion of growth.

[19] = system: Pseudomonas aeruginosa 690
Description: as §3, §4

[20] = system: Klebsiella pneumoniae KN 4401; details: Klebsiella KN 4401
Description: as §3, §4

E. coli AB 2847 = system: E. coli AB 2847
Description: as §3, §4

[21] = system: Pseudomonas aeruginosa PAO 6609
Description: as §3, §4

[22] = system: Salmonella typhimurium TA 2700
Description: as §3, §4

[23] = system: Proteus mirabilis 12 (wild); details: Proteus mir. 12
Description: as §3, §4

[24] = system: Morganella morganii SBK3 (wild); details: M. morg. SBK 3
Description: as §3, §4

[25] = system: Pseudomonas aeruginosa K 407; details: Pseudomonas aeruginosa K407
Description: as §3, §4

[26] = system: Salmonella typhimurium enb-7
Description: as §3, §4

SMILES: COC(=O)Oc1cccc(C(=O)N2COC[C@H]2C(=O)N[C@@H](C(=O)N[C@@H]2C(=O)N3[C@@H]2SC(C)(C)[C@@H]3C(=O)O)c2ccccc2)c1OC(=O)OC [Substance 30, (S)-N-[3-(2,3-di-(Methoxycarbonyloxy)-benzoyl]-oxazolidin-4-oyl]-ampicillin]
MIC values, microdilution test [1]: 6.25 µg/mL (≈ 8.92 µM)
MIC values, microdilution test [2]: 0.4 µg/mL (≈ 0.571 µM)
MIC values, microdilution test (E. coli ATCC 25922): 6.25 µg/mL (≈ 8.92 µM)
MIC values, microdilution test [3]: 6.25 µg/mL (≈ 8.92 µM)
MIC values, microdilution test [4]: 50 µg/mL (≈ 71.4 µM)
inhibition spot diameter in the agar diffusion test [5]: 22 mm
inhibition spot diameter in the agar diffusion test [6]: 27 mm
MIC values, microdilution test [7]: 3.12 µg/mL (≈ 4.45 µM)
MIC values, microdilution test (E. coli DC2): 0.4 µg/mL (≈ 0.571 µM)
MIC values, microdilution test [8]: 0.2 µg/mL (≈ 0.285 µM)
MIC values, microdilution test [9]: 0.78 µg/mL (≈ 1.11 µM)
inhibition spot diameter in the agar diffusion test [10]: 19 mm
inhibition spot diameter in the agar diffusion test [11]: 31 mm
inhibition spot diameter in the agar diffusion test [12]: 29 mm
inhibition spot diameter in the agar diffusion test ([13]; concentration 100 μg/ml): 33 mm
inhibition spot diameter in the agar diffusion test (E. coli DC0 (wild type)): 25 mm

SMILES: CC(=O)Oc1cccc(C(=O)Nc2cc(NC(=O)c3cccc(OC(C)=O)c3OC(C)=O)cc(C(=O)N[C@@H](C(=O)N[C@@H]3C(=O)N4[C@@H]3SC(C)(C)[C@@H]4C(=O)O)c3ccccc3)c2)c1OC(C)=O [Substance 36, N-[3,5-bis-(2,3-diacetoxy-benzoylamino)-benzoyl]-ampicillin]
inhibition spot diameter in the agar diffusion test [14]: 19 mm
MIC values, microdilution test [1]: 6.25 µg/mL (≈ 6.76 µM)
MIC values, microdilution test [15]: 3.12 µg/mL (≈ 3.38 µM)
MIC values, microdilution test [2]: 0.4 µg/mL (≈ 0.433 µM)
MIC values, microdilution test (E. coli ATCC 25922): 25 µg/mL (≈ 27.1 µM)
inhibition spot diameter in the agar diffusion test [5]: 25 mm
inhibition spot diameter in the agar diffusion test [6]: 25 mm
MIC values, microdilution test [7]: 1.56 µg/mL (≈ 1.69 µM)
inhibition spot diameter in the agar diffusion test [10]: 24 mm
inhibition spot diameter in the agar diffusion test [11]: 19 mm
inhibition spot diameter in the agar diffusion test [12]: 23 mm
inhibition spot diameter in the agar diffusion test ([13]; concentration 100 μg/ml): 29 mm
inhibition spot diameter in the agar diffusion test [16]: 16 mm
inhibition spot diameter in the agar diffusion test (E. coli DC0 (wild type)): 13 mm
inhibition spot diameter in the agar diffusion test [17]: 17 mm

MIC ([15]; Pseudomonas aeruginosa, ATCC27853): 0.2 µg/mL (≈ 0.522 µM)
MIC ([2]; Pseudomonas aeruginosa, SG137): 0.1 µg/mL (≈ 0.261 µM)
MIC (E. coli ATCC 25922; Escherichia coli, ATCC25922): < 0.05 µg/mL
MIC ([3]; ATCC10031): < 0.05 µg/mL
MIC ([7]; GN12873): > 100 µg/mL
SMILES: C[C@@H](O)[C@H]1C(=O)N2C(C(=O)O)=C(S[C@@H]3CN[C@H](C(=O)N(C)C)C3)[C@H](C)[C@H]12 [Meropenem, reference compound]

SMILES: CC(=O)Oc1cccc(C(=O)NCCCC[C@H](NC(=O)c2cccc(OC(C)=O)c2OC(C)=O)C(=O)N[C@@H](C(=O)N[C@@H]2C(=O)N3[C@@H]2SC(C)(C)[C@@H]3C(=O)O)c2ccc(O)cc2)c1OC(C)=O [Substance Na-35, N-[L-2,6-bis-(2,3-diacetoxy-benzoylamino)-hexanoyl)-amoxicillin]
inhibition spot diameter in the agar diffusion test [14]: 22 mm
MIC values, microdilution test [1]: 1.58 µg/mL (≈ 1.69 µM)
MIC values, microdilution test [15]: 1.56 µg/mL (≈ 1.67 µM)
MIC values, microdilution test [2]: 0.1 µg/mL (≈ 0.107 µM)
MIC values, microdilution test (E. coli ATCC 25922): 0.2 µg/mL (≈ 0.214 µM)
inhibition spot diameter in the agar diffusion test [5]: 31 mm
inhibition spot diameter in the agar diffusion test [6]: 30 mm
MIC values, microdilution test [7]: 6.25 µg/mL (≈ 6.69 µM)
inhibition spot diameter in the agar diffusion test [10]: 28 mm
inhibition spot diameter in the agar diffusion test [11]: 38 mm
inhibition spot diameter in the agar diffusion test [12]: 33 mm
inhibition spot diameter in the agar diffusion test ([13]; [ ] at 50 μg/ml): [38] mm
inhibition spot diameter in the agar diffusion test [16]: 23 mm
inhibition spot diameter in the agar diffusion test (E. coli DC0 (wild type)): 24 mm
inhibition spot diameter in the agar diffusion test [17]: 20 mm

SMILES: COC(=O)Oc1ccc(C=Nc2cccc(C(=O)O)c2)cc1OC(=O)OC [Substance 1, 3-[3,4-di(Methoxycarbonyloxy)-benzylideneamino]-benzoic Acid]
Growth areas of siderophore indicator strains (diameter) [18]: 35 mm
Growth areas of siderophore indicator strains (diameter) [19]: 23 mm
Growth areas of siderophore indicator strains (diameter) [20]: 0 mm
Growth areas of siderophore indicator strains (diameter) (E. coli AB 2847): 0 mm
Growth areas of siderophore indicator strains (diameter) [21]: 20 mm
Growth areas of siderophore indicator strains (diameter) [22]: 0 mm
Growth areas of siderophore indicator strains (diameter) [23]: 26 mm
Growth areas of siderophore indicator strains (diameter) [24]: 35 mm
Growth areas of siderophore indicator strains (diameter) [25]: 16 mm
Growth areas of siderophore indicator strains (diameter) [26]: 35 mm

SMILES: CC(=O)Oc1cccc(C(=O)NCCCC[C@H](NC(=O)c2cccc(OC(C)=O)c2OC(C)=O)C(=O)N[C@@H](C(=O)N[C@@H]2C(=O)N3[C@@H]2SC(C)(C)[C@@H]3C(=O)O)c2ccccc2)c1OC(C)=O [Substance Na-31, N-[L-2,6-bis-(2,3-diacetoxybenzoylamino)-hexanoyl]-ampicillin]
inhibition spot diameter in the agar diffusion test [14]: 24 mm
MIC values, microdilution test ([1]; listed as Na-31): 0.78 µg/mL (≈ 0.85 µM)
MIC values, microdilution test [15]: 0.78 µg/mL (≈ 0.85 µM)
MIC values, microdilution test (E. coli ATCC 25922; listed as Na-31): 0.2 µg/mL (≈ 0.218 µM)
inhibition spot diameter in the agar diffusion test ([5]; listed as Na-31): 31 mm
inhibition spot diameter in the agar diffusion test ([6]; listed as Na-31): 31 mm
MIC values, microdilution test ([7]; listed as Na-31): 6.25 µg/mL (≈ 6.81 µM)
inhibition spot diameter in the agar diffusion test ([10]; listed as Na-31): 29 mm
inhibition spot diameter in the agar diffusion test ([11]; listed as Na-31): 38 mm
inhibition spot diameter in the agar diffusion test ([12]; listed as Na-31): 34 mm
inhibition spot diameter in the agar diffusion test ([13]; [ ] at 50 μg/ml): [38] mm
inhibition spot diameter in the agar diffusion test [16]: 26 mm
inhibition spot diameter in the agar diffusion test (E. coli DC0 (wild type); listed as Na-31): 28 mm
inhibition spot diameter in the agar diffusion test [17]: 21 mm

SMILES: COC(=O)Oc1ccc(C=Nc2cc(N=Cc3ccc(OC(=O)OC)c(OC(=O)OC)c3)cc(C(=O)O)c2)cc1OC(=O)OC [Substance 4, 3,5-Bis-[3,4-di(methoxycarbonyloxy)-benzylideneamino]-benzoic Acid]
Growth areas of siderophore indicator strains (diameter) [18]: 24 mm
Growth areas of siderophore indicator strains (diameter) [19]: 18 mm
Growth areas of siderophore indicator strains (diameter) [20]: 33 mm
Growth areas of siderophore indicator strains (diameter) (E. coli AB 2847): 18 mm
Growth areas of siderophore indicator strains (diameter) [21]: 17 mm
Growth areas of siderophore indicator strains (diameter) [22]: 0 mm
Growth areas of siderophore indicator strains (diameter) [23]: 23 mm
Growth areas of siderophore indicator strains (diameter) [24]: 27 mm
Growth areas of siderophore indicator strains (diameter) [25]: 18 mm
Growth areas of siderophore indicator strains (diameter) [26]: 34 mm
